Experimental data: patent US7253286B2, “Nitrogen-containing aromatic derivatives” (Eisai Co., Ltd, priority 2000, dated 2007)

Legend:
[1] = test system: Human Umbilical Vein Endothelial Cells (HUVECs); assay: Inhibition against invasive tube formation by vascular endothelial cells in response to stimulation by angiogenic factor mixture; format: cell-based; parameters: key: the number of tubes formed in the absence of the test substance was designated as +++; scored on the 5-level scale of +++, ++, +, +/−, −; scored on the 5-level scale of +++, ++, +, +/−, −; scored on the 5-level scale of +++, ++, +, +/−, −; − was assigned if absolutely no tubes formed; settings: HUVEC on fibrin gel, EGF/FGF2/VEGF/HGF/TNF-α mixture, 6th day, MTT staining; for number of tubes formed in the fibrin gel (score) at 0.01 μM: test substance 0.01 μM; for number of tubes formed in the fibrin gel (score) at 0.1 μM: test substance 0.1 μM; for number of tubes formed in the fibrin gel (score) at 1.0 μM: test substance 1.0 μM
Procedure: Inhibition Against Invasive Tube Formation by Vascular Endothelial Cells in Response to Stimulation by Angiogenic Factor Mixture
Human Umbilical Vein Endothelial Cells (HUVECs) were isolated according to a reported method (Shinseikagaku Jikken Koza [New Biochemistry Experiment Lectures], “Saibo Baiyo Gijutsu” [Cell Culturing Techniques], p.197–202), and were cultured in a 5% CO2 incubator (37° C.) using EGM-2 medium (purchased from Clonetics Corp.) until the cells reached confluency. After adding 0.4 ml of bovine fibrinogen (purchased from Sigma Co.) to the inner well of a Transwell culturing plate (purchased from Coster Inc.), it was hardened with 0.7 units/ml of thrombin (purchased from Sigma Co.). The HUVECs were recovered using trypsin-EDTA and then suspended in human endothelial serum free medium basal growth medium (hereinafter abbreviated as SFM, purchased from GIBCO BRL), and 0.4 ml of the cell suspension (1.4×10^5 cells) was seeded onto the hardened fibrin gel and cultured for approximately 4 hours in a 5% CO2 incubator (37° C.). After 4 hours, there was added to the outer chamber of the Transwell 1.5 ml of an SFM solution containing a mixture of angiogenic factors {10 ng/ml EGF (purchased from GIBCO BRL), 30 ng/ml FGF2 (purchased from GIBCO BRL), 75 ng/ml VEGF (purchased from Wako Pure Chemical Industries Co., Ltd.), 50 ng/ml HGF (purchased from R&D Co.) and 7.5 ng/ml TNF-α (purchased from Genzyme Corp.) [The concentrations of the angiogenic factors differed slightly according to the HUVEC lot.]} and a diluted test substance, and culturing was carried out in a 5% CO2 incubator (37° C.). On the 2nd and 4th days after adding the test substance, the medium was exchanged with 1.5 ml of freshly prepared SFM solution containing the angiogenic factor mixture and test substance. Upon aspirating off the culture supernatant in the inner well on the 6th day after the initial addition of the test substance, 0.4 ml of a 3.3 mg/ml MTT solution dissolved in PBS (purchased from Sigma Corp.) was added and culturing was performed for approximately 1 hour in a 5% CO2 incubator (37° C.). The number of tubes formed in the fibrin gel stained with MTT was scored based on microscope observation. Specifically, the number of tubes formed in the absence of the test substance was designated as +++, while − was assigned if absolutely no tubes formed. The number of tubes formed in the presence of the test substance was scored on the 5-level scale of +++, ++, +, +/−, − to evaluate the strength of inhibition of the test substance.

VEGFR2 = biological target: T1, VEGFR2 (Homo sapiens, UniProt P35968); assay: Inhibition against VEGFR2 kinase (receptor tyrosine kinase activity, HTRF method); format: biochemical; settings: His6-VEGFR2 cytoplasmic domain, biotin-poly(GT) substrate, ATP, 30° C. 10 minutes, read-out: IC50 (concentration required for 50% inhibition of VEGFR2 kinase activity)
T1 construct: coding for the cytoplasmic domain, beginning with lysine 791 and including the termination codon; made in house; host or cells: Sf9 insect cells (baculovirus, pFastBacHis)
T1 sequence (P35968 786-1356 limits assumed): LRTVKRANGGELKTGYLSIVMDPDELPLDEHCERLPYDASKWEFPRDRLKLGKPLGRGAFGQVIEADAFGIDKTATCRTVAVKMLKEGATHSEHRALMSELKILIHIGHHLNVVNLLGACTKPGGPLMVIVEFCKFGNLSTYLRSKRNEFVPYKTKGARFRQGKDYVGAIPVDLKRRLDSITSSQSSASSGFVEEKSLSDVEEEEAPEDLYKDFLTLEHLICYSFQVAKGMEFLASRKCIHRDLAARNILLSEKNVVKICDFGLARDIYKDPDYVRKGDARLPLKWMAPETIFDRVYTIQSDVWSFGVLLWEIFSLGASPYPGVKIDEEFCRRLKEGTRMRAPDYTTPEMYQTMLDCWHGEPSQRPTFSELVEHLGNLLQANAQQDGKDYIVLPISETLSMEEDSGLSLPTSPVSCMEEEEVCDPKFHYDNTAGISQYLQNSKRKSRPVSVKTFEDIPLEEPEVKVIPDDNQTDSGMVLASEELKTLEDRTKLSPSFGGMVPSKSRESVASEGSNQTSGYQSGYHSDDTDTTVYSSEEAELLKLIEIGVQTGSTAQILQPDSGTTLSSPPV
Description: Measurement of Inhibition Against Receptor Tyrosine Kinase Activity
This assay is used to determine inhibition of a test substance on tyrosine kinase activity. DNA coding for the cytoplasmic domain of VEGFR2 is obtained by total cDNA synthesis (Edwards M, International Biotechnology Lab 5(3), 19–25, 1987) or by cloning. Expression in an appropriate expression system can produce a polypeptide with tyrosine kinase activity. […] For VEGFR2 (Genbank Accession No. L04947), the 1.7 kb DNA fragment described by Terman et al. (Oncogene, 6(9), 1677–1683, 1991), coding for the cytoplasmic domain, beginning with lysine 791 and including the termination codon, was isolated from a human placental cDNA library (purchased from Clontech Laboratories, Inc.) and cloned in a Baculovirus expression vector (pFastBacHis, purchased from GIBCO BRL) The recombinant construct was transfected into insect cells (Spondoptea frugiperda9 (Sf9)) to prepare a recombinant Baculovirus. (Instructions for preparation and use of recombinant Baculovirus maybe found in standard texts, such as “Bac-To-Bac Baculovirus Expression System” (GIBCO BRL).) The cytoplasmic fragment starting from lysine 398 (FGFR1, Genbank Accession No. X52833), the cytoplasmic fragment starting from lysine 558 (PDGFRβ, Genbank Accession No. M21616) or the cytoplasmic fragment starting from lysine 974 (HGFR, Genbank Accession No. J02958) may be cloned and expressed by the same method for use in assays for other tyrosine kinases. EGFR was purchased from Sigma Co. (Product No. E-2645).
For expression of the VEGFR2 tyrosine kinase, Sf9 cells were infected with the VEGFR2 recombinant virus and collected after 48 hours. The collected cells were rinsed with ice-cooled phosphate buffered saline (PBS) and then resuspended using 20 ml of ice-cooled Lysis Buffer (50 mM Tris-HCl (pH 8.5), 5 mM 2-mercaptoethanol, 100 mM KCl, 1 mM phenylmethylsulfonyl fluoride, 1% (v/v) NP-40) per 1.5×10^8 cells. The suspension was centrifuged at 12,000 rpm for 30 minutes at 4° C. and the supernatant was obtained.
The supernatant was added to a Ni—NTA agarose column (3 ml, purchased from Qiagen) equilibrated with Buffer A {20 mM Tris-HCl (pH 8.5), 5 mM 2-mercaptoethanol, 500 mM KCl, 20 mM imidazole, 10% (v/v) glycerol}. The column was washed with 30 ml of Buffer A, and then with 6 ml of Buffer B {20 mM Tris-HCl (pH 8.5), 5 mM 2-mercaptoethanol, 1M KCl, 10% (v/v) glycerol}, and finally with 6 ml of Buffer A. After washing, it was eluted with 6 ml of Buffer C {20 mM Tris-HCl (pH8.5), 5mM2-mercaptoethanol, 100 mMKCl, 100 mM imidazole, 10% (v/v) glycerol}. The eluate was placed on a dialysis membrane (purchased from Spectrum Laboratories) and dialyzed with a dialysis buffer {20 mM Tris-HCl (pH 7.5), 10% (v/v) glycerol, 1 mM dithiothreitol, 0.1 mM Na3VO4, 0.1 mM EGTA}. After dialysis, it was supplied for SDS-electrophoresis, and the recombinant protein (His6-VEGFR2, cytoplasmic domain of VEGFR2 fused with 6 histidine residues at the N-terminus) detected at a molecular weight of approximately 100 kDa with Coumassie Brilliant Blue staining was assayed using BSA (bovine serum albumin, purchased from Sigma Co.) as the standard substance, and stored at −80° C. until use. Using the same method for the cytoplasmic domains of FGFR1, PDGFRβ and HGFR yielded respective recombinant proteins fused with 6 histidine residues at the N-termini (His6-FGFR1, His6-PDGFRβ or His6-HGFR).
The tyrosine kinase reaction was conducted as follows. […]

Row | IC50 (VEGFR2) [nM] | SMILES | number of tubes formed in the fibrin gel (score) at 0.01 μM [1] | number of tubes formed in the fibrin gel (score) at 0.1 μM [1] | number of tubes formed in the fibrin gel (score) at 1.0 μM [1]
1 | 5.5 | COCCOc1cc2nccc(Oc3ccc(NC(=O)Nc4nccs4)c(F)c3)c2cc1C#N [Example 25, N-(4-(6-cyano-7-(2-methoxyethoxy)-4-quinolyl)oxy-2-fluorophenyl)-N′-(1,3-thiazol-2-yl)urea] | ++ | +/− | +/−
2 | 4.6 | COc1cc2nccc(Oc3ccc(N(C)C(=O)Nc4ccc(F)cc4)cc3)c2cc1C(N)=O [Example 348] | +/− | − | −
